Patent US4263326A, “Antimicrobial compositions containing an octylphenone” (The Lion Dentrifice Co. Ltd., priority 1978, dated 1981)
Where two headings read alike, the source gives them in different places.

What was measured:
[1] = Irritancy / physiological activity
[2] = tested on: Bacillus subtilis; assay: Growth prevention of Bacillus subtilis in tripticase soy broth culture media at 37° C; type: cell-based
Method: For comparative purpose, three more culture media were prepared without addition of an antimicrobial agnet or with addition of 2% by weight of ethyl alcohol or 0.2% by weight of sorbic acid instead of the phenone compound and Bacillus subtilis was cultured therein similarly.

[3] = Oral LD50 in rats; type: in vivo; conditions: rat, in vivo, po
[4] = tested on: rats; assay: Oral LD50 in rats; type: in vivo
[5] = tested on: Penicillium crysogenum; conditions: 5%, 28° C
Method: (§1) The antifungal effect of the extract powder prepared in Example 2 was examined by adding it into potato-dextrose agar culture media in an amount of 0.2% by weight in which Aspergillus niger or Penicillium crysogenum were cultured at 28° C. For comparison, similar culture tests of the fungi were undertaken with the culture media in which no antimicrobial agent was added or 5% by weight of ethyl alcohol was added instead of the extract powder.
(§2) the results are summarized in Table 2 below, in which the marks "±" are for the cases where the growth of the molds was difficultly recognized, the marks "+" are for the cases where the growth of the molds could be recognized only of the hyphae though to a small extent, the mark "++" are for the cases where the growth could be recognized only of the hyphae to a considerable extent, and the marks "+++" and "++++" are for the cases where spores were formed.

[6] = tested on: Aspergillus niger; set-up: key to the marks not given beside the values; conditions: 5%, 28° C
Method: as §1, §2

O=C(CCCCCCCCc1cc(O)ccc1O)c1c(O)cccc1O [2',6'-dihydroxy-9-(2,5-dihydroxyphenyl)octylphenone]
irritancy [1]: non-irritant
physiological activity [1]: physiologically inactive
duration of growth prevention ([2]; 0.002% by weight, tripticase soy broth): ≥ 7.5 h
effectiveness compared with sorbic acid ([2]; 0.002% vs sorbic acid 0.2%): more effective than sorbic acid
antimicrobial effect compared with sorbic acid ([2]; concentration one hundredth of that of sorbic acid): as good as that of sorbic acid
LD50 [3]: ≥ 2000 mg/kg
LD50 [4]: 2000 mg/kg

CCO [Ethyl alcohol]
growth of mold ([5]; 10 days): ±
growth of mold ([5]; 18 days): ++
growth of mold ([6]; 10 days): ++
growth of mold ([6]; 18 days): ++

C/C=C/C=C/C(=O)O [Sorbic acid, reference compound]
duration of antimicrobial effect ([2]; 0.2% by weight, tripticase soy broth): about 4.5 hours
